This is an account of results in ChEMBL document CHEMBL5543084, “Development of cannabidiol derivatives as potent broad-spectrum antibacterial agents with membrane-disruptive mechanism” (Eur J Med Chem, 2024).

In general, MIC refers to the lowest concentration that inhibits growth of the organism. Broadly, the HC50 is the concentration giving 50% haemolysis. High values mean less damage to red cells, low ones more damage to red cells.

Structures are written as SMILES. Converted amounts (≈) assume the structure as drawn.

The test system of data set [1] is Staphylococcus aureus. Nature of the data set: Antibacterial activity against Staphylococcus aureus ATCC 29213 assessed as inhibition of bacterial growth incubated for 24 hrs by broth dilution method. The class given is functional. For orientation: In broth dilution the organism is exposed to a series of concentrations in liquid medium.
For data set [2], the system named is Staphylococcus aureus. As to the kind of experiment: Antibacterial activity against methicillin-resistant Staphylococcus aureus N315 assessed as inhibition of bacterial growth incubated for 24 hrs by broth dilution method. The class given is functional.
Data set [3] has as its system Staphylococcus aureus. Nature of the data set: Antibacterial activity against methicillin-resistant Staphylococcus aureus NCTC 10442 assessed as inhibition of bacterial growth incubated for 24 hrs by broth dilution method. The class given is functional.
The test system of another data set is Escherichia coli. As to the kind of experiment: Antibacterial activity against Escherichia coli ATCC 25922 assessed as inhibition of bacterial growth incubated for 24 hrs by broth dilution method. The data set is classed as functional.
Data set [4] deals with Acinetobacter baumannii. Nature of the data set: Antibacterial activity against Acinetobacter baumannii ATCC 17978 assessed as inhibition of bacterial growth incubated for 24 hrs by broth dilution method. The data set is classed as functional.
Data set [5] deals with Acinetobacter baumannii. As to the kind of experiment: Antibacterial activity against Acinetobacter baumannii R2889 assessed as inhibition of bacterial growth incubated for 24 hrs by broth dilution method. The data set is classed as functional.
Data set [6] has as its system Klebsiella pneumoniae. As to the kind of experiment: Antibacterial activity against Klebsiella pneumoniae ATCC 14581 assessed as inhibition of bacterial growth incubated for 24 hrs by broth dilution method. The class given is functional.
In data set [7] the test system is Klebsiella pneumoniae. As to the kind of experiment: Antibacterial activity against Klebsiella pneumoniae ATCC 10031 assessed as inhibition of bacterial growth incubated for 24 hrs by broth dilution method. The data set is classed as functional.
In another data set the test system is Pseudomonas aeruginosa. As to the kind of experiment: Antibacterial activity against Pseudomonas aeruginosa ATCC 9027 assessed as inhibition of bacterial growth incubated for 24 hrs by broth dilution method. The class given is functional.
Data set [8] can be described thus: Hemolytic activity against rabbit blood cells incubated for 1 hr relative to control. The data set is classed as toxicity, cell-based, Oryctolagus cuniculus, Erythrocyte. Particulars: rabbit blood cells (erythrocytes).

Regarding `C=C(C)[C@@H]1CCC(C)=C[C@H]1c1c(OCCCCN2CCSCC2)cc(CCCCC)cc1OCCCCN1CCSCC1`, the minimum inhibitory concentration (MIC) is > 50 µg/mL in the data set with Staphylococcus aureus [1]; > 50 µg/mL in the data set on Staphylococcus aureus [2]; > 50 µg/mL with Staphylococcus aureus [3]; > 100 µg/mL in the data set on Escherichia coli; > 50 µg/mL in the data set on Acinetobacter baumannii [4]; > 50 µg/mL with Acinetobacter baumannii [5]. Further, the MIC in the data set with Klebsiella pneumoniae [6], in the data set on Klebsiella pneumoniae [7] and in the data set with Pseudomonas aeruginosa was > 50 µg/mL each time. In addition, the concentration for 50% haemolysis (HC50) at 1 h in data set [8] is > 200 µg/mL.

As for `C=C(C)[C@@H]1CCC(C)=C[C@H]1c1c(OCC(=O)N[C@@H](CCCNC(=N)N)C(=O)OC)cc(CCCCC)cc1OCC(=O)N[C@@H](CCCNC(=N)N)C(=O)OC`, the MIC came to 1.56 µg/mL (≈ 2.02 µM) in the data set with Staphylococcus aureus [1]; 1.56 µg/mL (≈ 2.02 µM) in the data set on Staphylococcus aureus [2]; 0.78 µg/mL (≈ 1.01 µM) in the data set with Staphylococcus aureus [3]; 6.25 µg/mL (≈ 8.11 µM) with Escherichia coli; 12.5 µg/mL (≈ 16.2 µM) in the data set on Acinetobacter baumannii [4]; 25 µg/mL (≈ 32.4 µM) in the data set with Acinetobacter baumannii [5]. The MIC with Klebsiella pneumoniae [6] was 25 µg/mL (≈ 32.4 µM); with Klebsiella pneumoniae [7] it was 25 µg/mL (≈ 32.4 µM); in the data set with Pseudomonas aeruginosa, 50 µg/mL (≈ 64.9 µM). In data set [8], the HC50 at 1 h was > 200 µg/mL.

Consider `C=C(C)[C@@H]1CCC(C)=C[C@H]1c1c(OCCCCN)cc(CCCCC)cc1OCCCCN`, for which the minimal inhibitory concentration (MIC) in the data set on Staphylococcus aureus [1], in the data set with Staphylococcus aureus [2], with Staphylococcus aureus [3], in the data set with Escherichia coli, in the data set on Acinetobacter baumannii [4] and in the data set with Acinetobacter baumannii [5] was 3.12 µg/mL (≈ 6.84 µM) each time. Further, the MIC turned out to be 12.5 µg/mL (≈ 27.4 µM) with Klebsiella pneumoniae [6], 6.25 µg/mL (≈ 13.7 µM) with Klebsiella pneumoniae [7] and 50 µg/mL (≈ 109 µM) with Pseudomonas aeruginosa. This compound also registered an HC50 at 1 h in data set [8] of 141 µg/mL.

In the case of `C=C(C)[C@@H]1CCC(C)=C[C@H]1c1c(OCC(=O)OCC)cc(CCCCC)cc1OCC(=O)OCC`, the MIC is > 50 µg/mL in the data set on Staphylococcus aureus [1]; > 50 µg/mL in the data set with Staphylococcus aureus [2]; > 50 µg/mL in the data set with Staphylococcus aureus [3]; > 100 µg/mL in the data set on Escherichia coli; > 50 µg/mL with Acinetobacter baumannii [4]; > 50 µg/mL in the data set with Acinetobacter baumannii [5]. For the same compound, the MIC with Klebsiella pneumoniae [6], in the data set on Klebsiella pneumoniae [7] and with Pseudomonas aeruginosa was > 50 µg/mL each time. The HC50 at 1 h in data set [8] was > 200 µg/mL.

For the compound `CN[C@H](CC(C)C)C(=O)N[C@H]1C(=O)N[C@@H](CC(N)=O)C(=O)N[C@H]2C(=O)N[C@H]3C(=O)N[C@H](C(=O)N[C@H](C(=O)O)c4cc(O)cc(O)c4-c4cc3ccc4O)[C@H](O)c3ccc(c(Cl)c3)Oc3cc2cc(c3O[C@@H]2O[C@H](CO)[C@@H](O)[C@H](O)[C@H]2O[C@H]2C[C@](C)(N)[C@H](O)[C@H](C)O2)Oc2ccc(cc2Cl)[C@H]1O` [VANCOMYCIN], the MIC in the data set with Staphylococcus aureus [1] was 0.78 µg/mL (≈ 0.538 µM); in the data set with Staphylococcus aureus [2], 1.56 µg/mL (≈ 1.08 µM); with Staphylococcus aureus [3] it was 1.56 µg/mL (≈ 1.08 µM); with Escherichia coli it was > 50 µg/mL. In data set [8], the HC50 at 1 h was > 200 µg/mL.

As for `C=C(C)[C@@H]1CCC(C)=C[C@H]1c1c(OCCCCN(C)C)cc(CCCCC)cc1OCCCCN(C)C`, the MIC in the data set with Staphylococcus aureus [1] amounted to 3.12 µg/mL (≈ 6.09 µM); with Staphylococcus aureus [2] it was 3.12 µg/mL (≈ 6.09 µM); in the data set with Staphylococcus aureus [3] it was 6.25 µg/mL (≈ 12.2 µM); in the data set with Escherichia coli it was 6.25 µg/mL (≈ 12.2 µM); in the data set with Acinetobacter baumannii [4] it was 6.25 µg/mL (≈ 12.2 µM); with Acinetobacter baumannii [5] it was 6.25 µg/mL (≈ 12.2 µM). In addition, the MIC in the data set with Klebsiella pneumoniae [6] turned out to be 6.25 µg/mL (≈ 12.2 µM); in the data set with Klebsiella pneumoniae [7] it was 6.25 µg/mL (≈ 12.2 µM); with Pseudomonas aeruginosa, 50 µg/mL (≈ 97.5 µM). The compound further had an HC50 at 1 h in [8] of 132 µg/mL.

With `C=C(C)[C@@H]1CCC(C)=C[C@H]1c1c(OCCCCN(CCCC)CCCC)cc(CCCCC)cc1OCCCCN(CCCC)CCCC`, the minimum inhibitory concentration (MIC) in the data set with Staphylococcus aureus [1] was > 50 µg/mL; in the data set on Staphylococcus aureus [2] it was > 50 µg/mL; in the data set with Staphylococcus aureus [3] it was > 50 µg/mL; with Escherichia coli, > 100 µg/mL; with Acinetobacter baumannii [4] it was > 50 µg/mL; in the data set on Acinetobacter baumannii [5], > 50 µg/mL. The minimal inhibitory concentration (MIC) in the data set with Klebsiella pneumoniae [6], with Klebsiella pneumoniae [7] and with Pseudomonas aeruginosa was > 50 µg/mL in each case. Moreover, the HC50 at 1 h in [8] was > 200 µg/mL.

Turning to `C=C(C)[C@@H]1CCC(C)=C[C@H]1c1c(OCCCCN(C)CCCNC)cc(CCCCC)cc1OCCCCN(C)CCCNC`, the MIC turned out to be 1.56 µg/mL (≈ 2.49 µM) with Staphylococcus aureus [1]; 1.56 µg/mL (≈ 2.49 µM) in the data set with Staphylococcus aureus [2]; 1.56 µg/mL (≈ 2.49 µM) in the data set on Staphylococcus aureus [3]; 3.12 µg/mL (≈ 4.98 µM) with Escherichia coli; 1.56 µg/mL (≈ 2.49 µM) with Acinetobacter baumannii [4]; 3.12 µg/mL (≈ 4.98 µM) in the data set with Acinetobacter baumannii [5]. Further, the minimum inhibitory concentration (MIC) with Klebsiella pneumoniae [6] stood at 3.12 µg/mL (≈ 4.98 µM); in the data set with Klebsiella pneumoniae [7] it was 1.56 µg/mL (≈ 2.49 µM); in the data set with Pseudomonas aeruginosa it was 3.12 µg/mL (≈ 4.98 µM). For the same compound, in data set [8], the HC50 at 1 h was > 200 µg/mL.

For `C=C(C)[C@@H]1CCC(C)=C[C@H]1c1c(OCCCCCBr)cc(CCCCC)cc1OCCCCCBr`, the MIC in the data set with Staphylococcus aureus [1], with Staphylococcus aureus [2], in the data set on Staphylococcus aureus [3], with Escherichia coli, in the data set with Acinetobacter baumannii [4] and with Acinetobacter baumannii [5] was > 50 µg/mL in each case. Further, the MIC in the data set on Klebsiella pneumoniae [6], in the data set with Klebsiella pneumoniae [7] and in the data set on Pseudomonas aeruginosa was > 50 µg/mL each time. The HC50 at 1 h in [8] was > 200 µg/mL.
